# Experimental data as given in article PMC11078216, “Discovery of potent and selective activity-based probes (ABPs) for the deubiquitinating enzyme USP30” (RSC Chemical Biology, 2024).
# Molecular target: T1, RTN1 (Homo sapiens, UniProt Q16799)
# T1 construct: endogenous in cells; host or cells: HEK293T
# T1 sequence (Q16799 1-776): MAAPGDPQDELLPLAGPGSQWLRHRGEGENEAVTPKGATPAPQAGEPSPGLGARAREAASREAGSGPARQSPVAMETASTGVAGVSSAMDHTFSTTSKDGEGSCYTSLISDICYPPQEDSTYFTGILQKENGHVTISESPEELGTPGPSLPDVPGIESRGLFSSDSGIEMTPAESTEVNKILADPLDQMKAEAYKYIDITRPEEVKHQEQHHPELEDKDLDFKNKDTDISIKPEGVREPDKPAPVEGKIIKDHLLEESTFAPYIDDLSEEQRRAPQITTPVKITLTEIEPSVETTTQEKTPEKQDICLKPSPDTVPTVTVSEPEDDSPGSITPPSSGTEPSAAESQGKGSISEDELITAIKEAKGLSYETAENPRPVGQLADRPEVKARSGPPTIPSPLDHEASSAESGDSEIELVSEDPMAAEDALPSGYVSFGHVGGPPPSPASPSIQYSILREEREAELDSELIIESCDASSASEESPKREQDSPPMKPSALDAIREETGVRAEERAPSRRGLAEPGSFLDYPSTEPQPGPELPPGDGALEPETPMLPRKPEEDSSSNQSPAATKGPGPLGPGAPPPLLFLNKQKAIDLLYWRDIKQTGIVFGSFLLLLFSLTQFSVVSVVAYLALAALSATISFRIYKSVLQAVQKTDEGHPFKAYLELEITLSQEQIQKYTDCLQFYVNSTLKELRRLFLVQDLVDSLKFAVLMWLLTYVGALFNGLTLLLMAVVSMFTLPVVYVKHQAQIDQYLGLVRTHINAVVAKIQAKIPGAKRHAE
# Test: ABPP chemical proteomics (LC-MS/MS) in HEK293T cells
# Type: cell-based
# Procedure: To explore the selectivity of IMP-2587 and IMP-2586 across the whole proteome, we performed quantitative activity-based protein profiling (ABPP) in HEK293T cells following treatment with IMP-2587 or IMP-2586 (Fig. 3a). After ABP incubation, cells were lysed, and probe-labelled proteins were ligated to biotinylated capture reagents.[27] […] USP30 was outcompeted by corresponding parent inhibitors for each ABP (Fig. 5b and d and Tables S3 and S5, ESI ^†), confirming the high potency and rapid engagement of IMP-2587 and IMP-2586 in cells. […] DESI1 and DESI2 are small ubiquitin-related modifier (SUMO) proteases,[3,29–32] and IMP-2587 and IMP-2586 may offer a starting point for future development of DESI ABPs. […]
# d) Live cell probe incubation, lysate click chemistry and precipitation 6-well HEK293T cells were incubated with media containing compounds ABP 2 and ABP 4 at indicated […]
# The cells were washed with PBS and lysed with lysis buffer (50 μL (1% (v/v) Triton X-100, 0.1% (w/v) sodium dodecyl sulfate (SDS), EDTA-free complete protease inhibitor cocktail (1×, Roche) in PBS on ice for 10 min. The lysates were scraped and transferred to corresponding Lo-Bind Eppendorfs. Each lysate was sonicated for 1 minute, and the samples centrifuges at 5,000 x g at 4 °C for 5 minutes to pellet insoluble cellular debris. The supernatant was collected, and protein concentration was determined using the DC Protein Assay (Bio-Rad) as per manufacturer’s instructions, and normalised to lowest concentrated sample (e.g. 1 mg/mL, using lysis buffer). The following “click mixture” was prepared separately, preparing 6 μL for every 100 μL of […]
# Capture reagent (AzRB/AzT for ABP 2, YnT/YnB for ABP 4 10 mM in DMSO, 1 vol; final concentration […]
# CuSO4 (50 mM in water, 2 vol; final concentration in reaction 1 mM)
# TCEP (50 mM in water, 2 vol; final concentration in reaction 1 mM)
# TBTA (10 mM in DMSO, 1 vol; final concentration in reaction 100 µM)
# The click mixture was vortexed and incubated at room temperature for 2 min before 6 μL of the mixture was added to every 100 μL of lysate. […]
smiles,measurement,setting,value
N#CN1CC[C@@H](NC(=O)c2cc(-c3ccccc3Oc3ccc(N=[N+]=[N-])cc3)n[nH]2)C1 [IMP-2586],Difference (log2 fold change of enrichment),"IMP-2586 labelling vs DMSO, 30 nM, 10 min, HEK293T (Table S4, Fig.5c)",1.53
C#Cc1cccc(-c2cc(NC(=O)CC3CCN(C#N)C3)on2)c1 (stereo not drawn) [IMP-2587],Difference (log2 fold change of enrichment),"IMP-2587 labelling vs DMSO, 30 nM, 10 min, HEK293T (Table S2, Fig.5a)",1.77
"N#CN1CC[C@H](CC(=O)Nc2cc(-c3cccc(Cl)c3)no2)C1 [compound 1, reference compound]",Difference (log2 fold change of enrichment),"compound 1 out-competition with IMP-2587 labelling, HEK293T (Table S3, Fig.5b)",-0.69
